In patent publication US20120253078A1, “Agent for Improving Carcass Performance in Finishing Hogs” (IGENE BIOTECHNOLOGY, INC., priority 2007, published 2012):

Legend:
[1] = Growth performance of finishing pigs fed increasing levels of astaxanthin (d 0 to 26); format: in vivo, pigs (barrows, PIC TR4×C22 cross); conditions: for ADFI / ADG / F/G / Final Wt.: d 0 to 26
Procedure: Procedures used in the experiment were approved by the Kansas State University Animal Care and Use Committee. The project was conducted at the KSU Swine Teaching and Research Farm. Pigs were housed in an environmentally regulated finishing building with pens over a totally slatted floor that provided approximately 8 ft^2 per pig. Each pen was equipped with a dry self-feeder and one nipple waterer, thereby providing ad libitum access to feed and water. The facility was a mechanically ventilated room with a pull-plug manure storage pit.
(§1) Forty-eight barrows (PIC, TR4×C22 cross) averaging 215 lb were used in the study. Pigs were blocked by weight and randomly allotted to one of the four dietary treatments with two pigs per pen and six pens per treatment. Experimental diets were provided in meal form and astaxanthin (0, 5, 10 and 20 ppm) was added to the control diet at the expense of corn starch to achieve the dietary treatments (Table 1). In Table 1, CP is crude protein; P is […]; ME is metabolizable energy; and TID is true ileal digestible. Pigs and feeders were weighed on day (d) 0, 7, 14, 21 and 26 to determine the growth performance criteria of average daily gain (ADG), average daily food intake (ADFI), and feed conversion (F/G).
(§2) Data were analyzed as a randomized complete block design using the PROC MIXED procedure of SAS with pen as the experimental unit. Linear and quadratic polynomial contrasts were used to determine the effect of increasing astaxanthin.
(§3) The source of natural astaxanthin used in the example was Phaffia rhodozyma which is commercially available under the trade name Aquasta® containing 10,000 ppm astaxanthin, by weight.

[2] = Carcass characteristics and loin eye color of finishing pigs fed astaxanthin; format: in vivo, pigs (barrows, PIC TR4×C22 cross); conditions: for Loin eye area / Loin eye color CIE L* / Loin eye color CIE a* / Loin eye color CIE b*: 10th rib; for Loin eye area / Backfat-1st rib / Backfat-10th rib / Backfat-Last Lumbar / Backfat-Last rib: 24-h postmortem; for Loin eye color CIE L* / Loin eye color CIE a* / Loin eye color CIE b*: 30 minutes bloom time
Procedure: as §1
On d 27, one pig per pen was transported to the KSU meats lab for humane slaughter and collection of carcass data. Hot carcass weight was collected immediately after evisceration. First-rib, tenth-rib, last-rib, and last-lumbar backfat depth, as well as loin eye area at the 10th-rib, were collected from the right half of each carcass 24-h postmortem. Additionally, each carcass was evaluated for loin muscle color at the 10th-rib with a Hunter MiniScan instrument to measure CIE L*, a* and b*, known color parameters relating to brightness, red-to-green coloration and yellow-to-blue coloration, as known in the art. That was performed after 30 minutes of bloom time, the time to oxygenate myoglobin thereby obtaining maximal pink or red coloration, for each loin muscle surface.
as §2, §3

[3] = 5 ppm astaxanthin in the feed; cited from earlier work
[4] = cited from earlier work
[5] = astaxanthin 5, 10, 20 ppm in diet
[6] = 5 ppm astaxanthin in diet for 26 d
[7] = 5 ppm astaxanthin in diet for 26 d before slaughter
[8] = 10 ppm astaxanthin in diet for 26 d
[9] = 10 ppm astaxanthin in diet for 26 d before slaughter
[10] = 20 ppm astaxanthin in diet for 26 d
[11] = 20 ppm astaxanthin in diet for 26 d before slaughter

`CC1=C(/C=C/C(C)=C/C=C/C(C)=C/C=C/C=C(C)/C=C/C=C(C)/C=C/C2=C(C)C(=O)C(O)CC2(C)C)C(C)(C)CC(O)C1=O` (stereo not drawn) [Astaxanthin, 3,3′-dihydroxy-β,β-carotene-4,4′dione] showed an ADFI ([1]; 5 ppm astaxanthin in diet) of 6.76 lb, an ADG ([1]; 5 ppm astaxanthin in diet) of 2.23 lb and a F/G ([1]; 5 ppm astaxanthin in diet) of 3.05. For the same compound, the “Final Wt.” value ([1]; 5 ppm astaxanthin in diet) was 273 lb, the ADFI ([1]; 10 ppm astaxanthin in diet) was 6.24 lb and the ADG ([1]; 10 ppm astaxanthin in diet) was 2.03 lb. The F/G ([1]; 10 ppm astaxanthin in diet) was 3.08, the “Final Wt.” value ([1]; 10 ppm astaxanthin in diet) was 268 lb and the ADFI ([1]; 20 ppm astaxanthin in diet) was 6.20 lb. For the same compound, the ADG ([1]; 20 ppm astaxanthin in diet) was 1.99 lb, the F/G ([1]; 20 ppm astaxanthin in diet) was 3.16 and the “Final Wt.” value ([1]; 20 ppm astaxanthin in diet) was 267 lb. For the same compound, the “ADG versus control pigs” value [1, 5] was “not significantly different”, the “F/G versus control pigs” value [1, 5] was “not significantly different” and the “average daily feed intake, trend” value ([1]; with increasing level of astaxanthin (0, 5, 10, 20 ppm)) was “tended to decrease”. The “percent fat-free lean (PFFL), comparison of doses” value ([2]; 5 or 10 ppm astaxanthin versus 0 or 20 ppm, p<0.10) was “greatest percent fat-free lean”, the Loin eye area [2, 6] was 7.72 sq. in and the “Loin eye color CIE L*” value [2, 6] was 55.3. The “Loin eye color CIE a*” value [2, 6] was 10.1, the “Loin eye color CIE b*” value [2, 6] was 14.8 and the Backfat-1st rib [2, 6] was 1.40 in. For the same compound, the Backfat-10th rib [2, 6] was 0.65 in, the “Backfat-Last Lumbar” value [2, 6] was 0.60 in and the Backfat-Last rib [2, 6] was 0.65 in. The “Fat-Free Lean” value [2, 7] was 55.6%, the “Hot Carcass Wt.” value [2, 7] was 192 lb and the “Live Wt.” value [2, 7] was 273 lb. For the same compound, the “Standardized Fat-Free Lean” value [2, 7] was 107 lb, the Yield [2, 7] was 70.6% and the Loin eye area [2, 8] was 7.58 sq. in. For the same compound, the “Loin eye color CIE L*” value [2, 8] was 58.9, the “Loin eye color CIE a*” value [2, 8] was 8.2 and the “Loin eye color CIE b*” value [2, 8] was 14.4. For the same compound, the Backfat-1st rib [2, 8] was 1.33 in, the Backfat-10th rib [2, 8] was 0.65 in and the “Backfat-Last Lumbar” value [2, 8] was 0.56 in. The Backfat-Last rib [2, 8] was 0.67 in, the “Fat-Free Lean” value [2, 9] was 55.5% and the “Hot Carcass Wt.” value [2, 9] was 191 lb. The “Live Wt.” value [2, 9] was 271 lb, the “Standardized Fat-Free Lean” value [2, 9] was 106 lb and the Yield [2, 9] was 70.6%. The Loin eye area [2, 10] was 7.28 sq. in, the “Loin eye color CIE L*” value [2, 10] was 56.2 and the “Loin eye color CIE a*” value [2, 10] was 10.3. For the same compound, the “Loin eye color CIE b*” value [2, 10] was 15.1, the Backfat-1st rib [2, 10] was 1.41 in and the Backfat-10th rib [2, 10] was 0.70 in. The “Backfat-Last Lumbar” value [2, 10] was 0.57 in, the Backfat-Last rib [2, 10] was 0.64 in and the “Fat-Free Lean” value [2, 11] was 54.5%. The “Hot Carcass Wt.” value [2, 11] was 189 lb, the “Live Wt.” value [2, 11] was 270 lb and the “Standardized Fat-Free Lean” value [2, 11] was 103 lb. The Yield [2, 11] was 70.3%, the “carcass traits and meat quality, benefit over lower doses” value ([2]; 20 ppm astaxanthin in the diet, optimum 5 to 10 ppm) was “no additional benefit” and the “backfat depth measured at the first rib, tenth rib and last rib, versus control” value ([2]; pigs fed astaxanthin, p<0.10) was “less backfat depth”. The “performance of sows (stillborn in the litter, parity)” value [3] was “improved performance of sows”, the “effect on production performance” value ([4]; 0, 1.5 and 3.0 ppm astaxanthin in the diet) was “no significant effect” and the “effect on dressing percentage, backfat thickness and loin muscle area” value ([4]; with increasing dietary astaxanthin level (0, 1.5, 3.0 ppm)) was “linear effect”.
